We go through 3 substances from article PMC5464773 (eLife, 2017).

For one assay, the target named is T1, Bcl-xL (Homo sapiens, UniProt Q07817).
T1 construct: c-myc
Nature of the assay: Competition fluorescence polarization (anisotropy) with fluoresceinated BIM. The assay is classed as binding. On the procedure: (§1) Plates were mixed at 23°C for 3 hr. Plates were read again at 24 to check equilibration. Experiments were done in at least triplicate.

Another assay deals with T2, Bcl-w (Homo sapiens, UniProt Q92843).
T2 construct: c-myc
T2 sequence (Q92843 1-193): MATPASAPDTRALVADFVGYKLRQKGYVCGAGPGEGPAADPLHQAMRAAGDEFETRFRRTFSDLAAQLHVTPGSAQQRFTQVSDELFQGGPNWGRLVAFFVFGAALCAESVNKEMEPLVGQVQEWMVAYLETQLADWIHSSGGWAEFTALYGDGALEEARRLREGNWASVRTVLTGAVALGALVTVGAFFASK
The assay is described as above. The assay is classed as binding. How it is done: as §1

The subject of assay [1] is BCR-ABL-expressing B-lineage acute lymphoblastic leukemia cells dependent on Bcl-xL. Nature of the assay: BH3 profiling, mitochondrial depolarization (JC-1) in permeabilized cells. The assay is classed as cell-based. Particulars: BH3 profiling fits Bcl-xL, sigmoidal dose-response (variable slope), fit ambiguous. How it is done:
Cell line identities were confirmed by STR profiling.
Peptides were titrated by serial dilution in MEB buffer (150 mM Mannitol, 10 mM HEPES-KOH pH 7.5, 50 mM KCl, 0.02 mM EGTA, 0.02 mM EDTA, 0.1% BSA and 5 mM Succinate) containing 20 μg/mL oligomycin, 50 μg/mL digitonin, 2 μM JC-1 and 10 mM 2-mercaptoethanol in 384-well plates. Controls for no depolarization (1% DMSO) and complete depolarization with the mitochondrial oxidative phosphorylation uncoupler FCCP (20 μM) were included for data normalization. […] 15 μL of cell suspension was added to each well containing 15 μL of treatment solution. […] To produce percent depolarization, the area under the resultant curve was calculated and normalized to the assay controls. Peptide titration curves were fit to sigmoidal dose-response curves using Graphpad PRISM seven to obtain EC50 values.

The target in assay [2] is T3, Bfl-1 (Homo sapiens, UniProt Q16548).
T3 construct: c-myc
T3 sequence (Q16548 1-175): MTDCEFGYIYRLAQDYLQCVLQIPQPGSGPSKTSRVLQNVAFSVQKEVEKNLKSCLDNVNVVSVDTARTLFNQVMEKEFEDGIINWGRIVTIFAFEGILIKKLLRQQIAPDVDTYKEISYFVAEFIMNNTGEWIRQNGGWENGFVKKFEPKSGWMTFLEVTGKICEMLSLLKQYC
Put plainly: Competition fluorescence polarization (anisotropy) with fluoresceinated BIM. The assay is classed as binding. Particulars: competition FP source data; for Ki: mean of three replicates. On the procedure:
as §1

The subject of assay [3] is Bfl-1. The assay is described as above. The assay is classed as binding, human. Particulars: ratio of Ki values from competition FP. On the procedure:
as §1

The mark [4] stands for this setting: competition FP source data, mean of three replicates, values above 5 μM are reported as > 5 μM in the figures, read-out: mean Ki (M) Bcl-xL.
Where [5] appears, read: competition FP source data, replicate 1.
Where [6] appears, read: competition FP source data, replicate 2.
The mark [7] stands for this setting: competition FP source data, replicate 3.
The mark [8] stands for this setting: competition FP source data, mean of three replicates, values above 5 μM are reported as > 5 μM in the figures, read-out: mean Ki (M) Bcl-w.
Where [9] appears, read: competition FP, 50 nM c-myc-tagged receptor + 25 nM fluoresceinated BIM, Tris pH 7.8, 23°C, 3 hr, mean ± SD of three replicates, read-out: Ki (nM) Bcl-w.

Where two headings read alike, the source gives them in different places.

T1 sequence (Q07817 whole entry): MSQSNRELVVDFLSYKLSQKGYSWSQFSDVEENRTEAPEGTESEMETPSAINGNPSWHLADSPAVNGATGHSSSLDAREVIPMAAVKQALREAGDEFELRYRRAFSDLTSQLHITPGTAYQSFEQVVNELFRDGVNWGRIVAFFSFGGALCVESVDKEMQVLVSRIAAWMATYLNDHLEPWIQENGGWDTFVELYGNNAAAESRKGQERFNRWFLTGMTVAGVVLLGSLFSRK

What is called Ki is the dissociation constant of the complex between target and ligand, obtained from inhibition or displacement. Consider Ac-QWIREIAAGLRRFADILNAQVER-NH2 [FS3], for which the Ki on Bcl-xL (setting [4]) worked out at 3.23e-07 M; on Bcl-w (setting [8]), 7.67e-07 M. In addition, the “Ki (M) Bcl-xL” value at Bcl-xL (setting [5]) is 2.75e-07 M; at Bcl-xL (setting [6]), 4.23e-07 M; on Bcl-xL (setting [7]), 2.72e-07 M. Further, the “Ki (M) Bcl-w” value at Bcl-w (setting [5]) was 7.55e-07 M; at Bcl-w (setting [6]) it was 8.54e-07 M; on Bcl-w (setting [7]), 6.93e-07 M. Besides, the “Bottom (best-fit value)” value in assay [1] (constraint Bottom < 5) is ~ 5. Besides, the “Top (best-fit value)” value in assay [1] (constraint Top > 78) worked out at 97.17. Besides, in assay [1], the “HillSlope (best-fit value)” value was ~ 8.841. The “LogEC50 (best-fit value)” value in assay [1] (x = Log [Peptide] M) was ~ -4.964.
For Ac-QWVREIAAGLRLAADNVNAQLER-NH2 [FS1], the Ki at Bcl-xL (setting [4]) is 2.38e-06 M; on Bfl-1 [2] it was 14.9 nM; at Bcl-w (setting [8]) it was 7.76e-06 M; at Bcl-w (setting [9]) it was over 5e-06 M. Moreover, the “Ki (M) Bcl-xL” value is 2.02e-06 M at Bcl-xL (setting [5]), 2.84e-06 M at Bcl-xL (setting [6]) and 2.27e-06 M on Bcl-xL (setting [7]). Further, the “Ki (M) Bfl-1” value at Bfl-1 [2] (replicate 1) came out at 1.51e-08 M; on Bfl-1 [2] (replicate 2), 1.72e-08 M; at Bfl-1 [2] (replicate 3), 1.22e-08 M. Further, in the assay with Bfl-1 [3], the “specificity for Bfl-1 relative to Bcl-xL, Bcl-2, Bcl-w and Mcl-1” value is listed as “at least 150 fold”. The “Ki (M) Bcl-w” value is 5.7e-06 M on Bcl-w (setting [5]), 7.42e-06 M at Bcl-w (setting [6]) and 1.02e-05 M at Bcl-w (setting [7]).
For the substance Ac-QWVREIAAGLRRAADDVNAQVER-NH2 [FS2], the Ki on Bcl-xL (setting [4]) is 7.07e-06 M; on Bcl-xL (competition FP, 50 nM c-myc-tagged receptor + 25 nM fluoresceinated BIM, Tris pH 7.8, 23°C, 3 hr, mean ± SD of three replicates, read-out: Ki (nM) Bcl-xL), over 5e-06 M; on Bfl-1 [2], 21.4 nM; at Bcl-w (setting [8]), 8.27e-06 M; on Bcl-w (setting [9]), over 5e-06 M. The results for the “Ki (M) Bcl-xL” value at Bcl-xL (setting [5]), at Bcl-xL (setting [6]) and on Bcl-xL (setting [7]) were 6.54e-06 M, 1e-05 M and 4.66e-06 M, respectively. Besides, the figures for the “Ki (M) Bfl-1” value at Bfl-1 [2] (replicate 1), at Bfl-1 [2] (replicate 2) and at Bfl-1 [2] (replicate 3) were 2.51e-08 M, 2.52e-08 M and 1.4e-08 M, respectively. Also, the “Ki (M) Bcl-w” value came to 1.14e-05 M at Bcl-w (setting [5]), 6.45e-06 M on Bcl-w (setting [6]) and 6.96e-06 M at Bcl-w (setting [7]).
